Data published in patent US10689357B2, “N-acylethanolamine hydrolyzing acid amidase (NAAA) inhibitors and use thereof” (Northeastern University, priority 2018, dated 2020).
Structures can show the parent of a compound that is named as a salt.

Target: hNAAA (Homo sapiens (Human), UniProt Q02083)
Test: NAAA fluorescence-based inhibition assay with PAMCA substrate
Format: biochemical
Details: purified activated hNAAA, PAMCA 5 μM, pH 4.5, 37° C.
From the text: In order to have an assay method more conducive to high-throughput screening than those published for measuring the NAE hydrolyzing activity of NAAA [Proc. Natl. Acad. Sci. USA. 2009; 106(49):20966-71], the fluorogenic PEA analog N-(4-methyl coumarin)palmitamide (PAMCA), which is hydrolyzed to fluorescent 7-amino-4-methyl coumarin (AMC) and palmitic acid, was developed. [J. Proteome Res. 2012; 11(2):972-981], [PloS One. 2012; 7: e43877]. For three point concentration inhibition assays with hNAAA the following procedure was used. Purified activated NAAA (final concentration of 0.25 μg/mL) was incubated in assay buffer (100 mM citrate-phosphate buffer, pH 4.5, 3 mM DTT, 0.1% Triton X-100, 0.05% BSA, and 150 mM NaCl) made up to a total volume of 180 μL, followed by addition of the compound dissolved in 10 μL DMSO (along with DMSO neat for the control sample) with the final concentrations for each compound of 100, 10, and 1 μM, in triplicate on a 96 well plate. These samples were allowed to incubate for 15 min at room temperature and then 10 μL of a PAMCA stock solution in DMSO (final PAMCA concentration [5 μM]) was added. After 5 minutes of agitation on a shaking plate, the reaction was allowed to proceed at 37° C. for 120 minutes, with fluorescence readings taken every 10 minutes at a wavelength of 460 nm (using an excitation wavelength of 360 nm) on a Synergy HT Plate Reader using Gen5 software from Bio-Tek. The enzyme activity was calculated by converting the relative fluorescence units to AMC formed, using a standard curve of AMC.
For compounds that inhibit hNAAA in range IC50<1 μM, full inhibition curves using eight different concentrations of inhibitor (8 point assay) were generated. The assay procedure used was the same as the three point assay. For ostensibly covalent compounds (as observed by a significant decrease in the slope of a plot of fluorescence vs. time in three point screen), samples were allowed to incubate for 2 hours at 37° C., instead of 15 minutes, before addition of 10 μL of a PAMCA stock solution in DMSO for a final PAMCA concentration of 5 μM. After 5 minutes of agitation on a shaking plate, the reaction was allowed to proceed at 37° C. for 120 minutes. Inhibition constants were calculated using pro Fit software (Quantum Soft, Uetikon am See, Switzerland) and a Levenberg-Marquardt algorithm.

Sequence of hNAAA (Q02083 29-125): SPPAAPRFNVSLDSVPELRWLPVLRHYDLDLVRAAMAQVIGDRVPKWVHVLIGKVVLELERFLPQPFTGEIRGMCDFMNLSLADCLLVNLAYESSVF
Sequence of hNAAA (Q02083 126-359): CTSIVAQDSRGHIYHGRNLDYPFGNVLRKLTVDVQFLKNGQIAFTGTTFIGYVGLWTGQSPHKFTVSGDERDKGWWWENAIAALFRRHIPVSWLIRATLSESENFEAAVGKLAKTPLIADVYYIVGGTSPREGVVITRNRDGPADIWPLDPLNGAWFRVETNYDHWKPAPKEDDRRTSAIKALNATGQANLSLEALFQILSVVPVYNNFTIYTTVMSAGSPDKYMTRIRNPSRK

COc1ccc(C23CC(C(=O)N[C@H]4C[C@@H](N=C=S)C4)(C2)C3)cc1 [Example 37, N-((1s,3s)-3-isothiocyanatocyclobutyl)-3-(4-methoxyphenyl)bicyclo[1.1.1]pentane-1-carboxamide]
IC50: 110 to 1000 nM

COc1ccc(-c2cnc(C(=O)N[C@H]3C[C@@H](N=C=S)C3)c(N3CCC3)c2)cc1 [Example 38, 3-(Azetidin-1-yl)-N-((1s,3s)-3-isothiocyanatocyclobutyl)-5-(4-methoxyphenyl)picolinamide]
IC50: 110 to 1000 nM

COc1ccc(-c2ccc(C(C)O[C@H]3C[C@@H](N=C=S)C3)nc2)cc1 (some centres unmarked) [Example 39, 2-(1-((1s,3s)-3-Isothiocyanatocyclobutoxy)ethyl)-5-(4-methoxyphenyl)pyridine]
IC50: 10 to 100 nM

COc1ccc(-c2ccc(C(C)O[C@H]3C[C@@H](N=C=S)C3)nc2)cc1F (some centres unmarked) [Example 40, 5-(3-Fluoro-4-methoxyphenyl)-2-(1-((1s,3s)-3-isothiocyanatocyclobutoxy)ethyl)pyridine]
IC50: 110 to 1000 nM

COc1ccc([C@H]2C[C@@H](C(=O)N[C@H]3C[C@@H](N=C=S)C3)C2)cc1 [Example 41, (1s,3S)—N-((1s,3S)-3-Isothiocyanatocyclobutyl)-3-(4-methoxyphenyl) cyclobutane-1-carboxamide]
IC50: 10 to 100 nM

COc1ccc(-c2ccc(CO[C@H]3C[C@@H](N=C=S)C3)nc2)nc1 [Example 42, 6′-(((1s,3s)-3-Isothiocyanatocyclobutoxy)methyl)-5-methoxy-2,3′-bipyridine succinate]
IC50: 10 to 100 nM

COc1ccc(-c2ccc(CO[C@H]3C[C@@H](N=C=S)C3)nc2)cc1F [Example 43, 5-(3-Fluoro-4-methoxyphenyl)-2-(((1s,3s)-3-isothiocyanatocyclobutoxy)methyl)pyridine citrate]
IC50: 10 to 100 nM

(1r, 3r)-3-Isothiocyanatocyclobutyl 5-(4-methoxyphenyl)picolinate [Example 21]
IC50: 10 to 100 nM
